In paper PMC11904221 (EMBO Molecular Medicine, 2025):
≈ marks a conversion by molar mass, not a printed value. Where “and” joins values, the source holds several entries; their conditions need not be identical. Identical values can stand only once. Like-named read-outs stand apart in the source and are kept apart here. Where a SMILES comes first, the peptide text is derived from it.

Tests used:
AKT and ERK = assay: Phosphorylation of AKT and ERK in HUVEC, SMC, CT-26, HEK 293; assay type: cell-based; details: HUVECs, SMCs, CT-26 cells, HEK-293 cells
Text: (§1) Scale bar, 50 µm. (C) Radioligand binding assay. […] Data are representative of three independent experiments and data shown as the mean ± s.e.m. […] The signals were sorted from high (red) to low (blue) intensity/phosphorylation. […] Source data are available online for this figure.

retinal vasculature = assay: Retina angiogenesis assay; assay type: in vivo, mouse; parameters: unit not given here; details: P5 mice, isolectin B4, individual values; control 74-89
Text: (§2) Red arrows indicate the direction of vessel formation. […] All data are representative of three independent experiments. […] The two Furin cleavage sites are shown. […] (S–U) Plasmon waveguide resonance (PWR). […] Source data are available online for this figure.
Angiogenesis is a complex intercellular process involving the organization of various cells.
Following the treatment period, the mice were humanely euthanized, and their eyes were harvested. […] The retinas were carefully isolated and fixed in 4% PFA for 2 h at room temperature or overnight at 4 °C. After fixation, the retinas were blocked and permeabilized in a solution containing 1% bovine serum albumin (BSA) and 0.5% Triton X-100 overnight at 4 °C. Subsequently, the retinas were washed three times with a buffer solution composed of 0.5% Triton X-100, 1 mM CaCl2, 1 mM MgCl2, and 1 mM MnCl2 in PBS, pH 6.8. The retinas were then incubated with FITC-labeled Isolectin B4 (1:1000; Vector Laboratories) to label blood vessels. Following staining, the retinas were embedded in Tissue-Tek OCT Compound, and 10-μm cryosections were cut. Confocal immunofluorescence images were acquired with an inverted Nikon C2si Eclipse Ti-S microscope and analyzed using NIS-ElementsAR software (Nikon Instruments Europe B.V.).

CT-26 cells on CAM = assay: CAM implanted with CT-26 cells, tumor and vascularized area; assay type: in vivo, chick; details: individual values
Text: (§3) Tumor growth, apoptosis, proliferation, and/or the angiogenic index of the developed tumors were first evaluated.
(§4) (A) Scheme and workflow of apelin-dm preclinic studies. […] (B–D) Error bars indicate s.e.m. center values indicate mean (Mann–Whitney U test). […] The percentage of relative staining intensity corresponding to CD31, Ki67, and BIM expression in CT-26 and MC-38 tumors of treated mice are shown in (I–N). Scale bar, 100 µm. Data represent mean ± s.e.m. of 3–4 independent experiments. P values were calculated with the Student t test in GraphPad. […] Quantification of tumor area (P) and vascularized area (Q) relative to control untreated CAMs (n = 3 CAM per group) assigned 100%. Data represent mean ± s.e.m. P values were calculated with the Student t test in GraphPad. […] (S, T) The average blood flow expressed in % relative to blood flow measured in […] (S) and MDA-MB231 (T) developed tumors. Data represent mean ± s.e.m. of 3–4 independent experiments. P values were calculated with the Student t test in GraphPad. Source data are available online for this figure.
Fertilized eggs were allowed to mature ex ovo. […] Immunohistology in toto was performed for vessel staining.

CT-26 and MC-38 tumors = assay: Subcutaneous tumor growth of cells stably expressing APLN or APLN-DM; assay type: in vivo, mouse
[1] = system: chick chorioallantoic membrane; assay: Chick chorioallantoic membrane (CAM) angiogenesis assay; details: 48 h, 100 nM each, individual CAM, n = 8; control 99-131
Protocol: Fertilized eggs were allowed to mature ex ovo. […] Immunohistology in toto was performed for vessel staining. Images of CAM vessels were acquired using a Zeiss Axiophot microscope.

CT-26 and MC-38 cells = assay: Soft agar, proliferation and apoptosis of cells expressing APLN or APLN-DM; details: cancer cells expressing the construct
Protocol: For the apoptosis assay, tumor cells were grown to 70% confluency, washed repeatedly to remove serum, and then incubated for the indicated time periods in serum-free media. Cells were washed and stained with FITC-labeled Annexin V using the FITC Annexin V Apoptosis Detection Kit I (BD Pharmingen^TM), according to the manufacturer’s instructions.
P values by two-tailed unpaired t-test.

CT-26 tumors = assay type: in vivo; details: Appendix Fig. S13
Text: as §3, §4
Additional experiments involved injecting 1 × 10^6 control CT-26/MC-38/MDA-MB231 cells into BALB/c, C57BL/6, or nude mice, respectively. […] LASER Doppler imaging assessed total blood flow, with FlowR® Hemodynamics visualization used for analysis. Results were expressed as % relative to pre-treatment tumor blood flow.

in vivo = details: both sexes, BALB/c, mouse, ip
Protocol: Pharmacological profile of APLN-DM peptide
Maximal Tolerated Dose (MTD) study of APLN -DM in mice
Six groups comprising six Balb/C mice per group (3 males and 3 females) were assigned to the study. In each gender, one control group (1 Male (M)/1 female (F)) received the reference solution (vehicle) and 5 […]
mg/kg (4M/4F), 2000 mg/kg (5M/5F) and 1500 mg/kg (6M/6F). APLN-DM peptide was administrated via intra-peritoneal (IP) single injection at day 1 followed by observation during 14 days. During the study, mortality, morbidity, general clinical signs and bod y weight were recorded. In the end of the study pathology and organ necropsy examination were performed. Thereby, APLN-DM peptide and vehicle were administered to mice according to Table-1 and their effects were analyzed according to Table-2.
Each test item dose was administrated to 3 female and 3 male mice. The administration was performed IP at a dose volume of 10 ml/kg. Dosing was performed according to Figure-1 and each increase in dose pending on the outcome of the previous dose (results of clinical signs). The lag time between the increasing doses was approximately 48h.
No. (n=) Mouse# Treatment Dose Level administration administratio […]
Table-1. Study design -1. […], […]
Study Day* Procedure Body Weight Clinical Mortality & Organ
Sign Morbidity observation
2-14 - Twice weekly Once -
15 Termination √ √ Gross pathology
Figure 1 - Decisional tree for successive dosing for MTD determination […]
At study termination, body weight (Figure 2 and Figure 3) and gross pathology abnormalities were analyzed in all animals. Main pathological finding were blood clots in intestine and chest cavity. Treatment-related clinical adverse side effects (purple tail, lethargy, decreased motor activity) were observed also in groups treated either with 200, 500, 1000 and 1500 mg/kg. The tail recovered a normal color after 1 hour in all dose groups. […]
abnormalities were detected in all male and female animals from these groups at the scheduled termination […]

[2] = Pharmacokinetic profile in mice, LC/MS; assay type: in vivo, mouse; details: Balb/C mice plasma, LC/MS, estimated from the 5 and 10 min samples
Protocol: Pharmacokinetic profile of APLN-DM in mice
The aim of the current study was to evaluate pharmacokinetic properties of APLN-DM peptide administrated intravenously (IV) or intraperitoneously (IP) in Balb/C mice. […]
for the IP group). Development of quantification method was performed using liquid chromatography coupled to mass spectrometry (LC/MS).
Results: Samples obtained in vivo were analyzed according to quantification-developed method and the peptide was detectable until 15 minutes after administration. Analysis allowed determining that APLN-DM […]
All animals were divided to three groups of 27 animals, one of 12 animals and one of 3 animals (vehicle) and will receive the corresponding test item according to Table 1. Each animal was weighed and administered at the appropriate volume.
Concentration ROA Blood Individual animal numbers
Group No. Treatment Dose Collect
Table 11 - Group allocation
Development of analytic method
Standard range from 0.5 to 100 µM was prepared and analysed for each fragmented ion as previously […]
Standard curves obtained for each ion are represented in Figure 6.
Figure 8: Standard curves obtained by quantification of each fragmented ion The best linearity was obtained by quantifying the fragmented ion 785 (z=5).
Quantification of APLN-DM in samples
Summary of analytical method development:
Quantification method was performed according to previous work. In summary, samples were analysed with a LC-MS triple quadripole system (ESI QqQ). The chromatographic system was a UPLC activity (Waters) coupled to a mass spectrometer TSQ Quantum Ultra (Thermo) equipped with triple quadripole analyser and electrospray ionisation (ESI) system. The selected column was Kinetex F5 […] 50x2.1 mm (Phenomenex). The analysis was made by quantifying fragmented ion z=5 (m/z=785) in samples compared […]
quantitation was previously determined to be 0.5 µM. Samples were analysed after protein precipitation as […]
In vivo phase samples analysis
As the stability of peptide is low, even in frozen plasma, it was decided to re-run the in vivo phase for the highest dose and to use freshly prepared samples.
26 samples were used for analysis.
Only samples taken 5 and 10 minutes after peptide administration presented detectable concentrations (see
Table 9). While 15 min results were on the level of accuracy (linearity threshold values). At a later time […]
estimated based on the 5 and 10 min measurements.
Sample ID Area Calculated amount

in vitro [3] = assay: in vitro
in vitro [4] = assay: in vitro; remark: listed apart in the source
[5] = pH 7.4
in vitro [6] = details: human
[7] = liver microsomes
Furin = Furin (Homo sapiens, UniProt P09958)
apelin receptor [8] = target: T1, apelin receptor (Homo sapiens, UniProt P35414); assay: Radioligand binding assay; parameters: purchased Euroscreen FAST-020B; details: competition with [125I]-(Pyr1)-apelin-13, apelin receptor membrane extracts 2 μg protein/well, 96-well plates
T1 sequence (P35414 1-380): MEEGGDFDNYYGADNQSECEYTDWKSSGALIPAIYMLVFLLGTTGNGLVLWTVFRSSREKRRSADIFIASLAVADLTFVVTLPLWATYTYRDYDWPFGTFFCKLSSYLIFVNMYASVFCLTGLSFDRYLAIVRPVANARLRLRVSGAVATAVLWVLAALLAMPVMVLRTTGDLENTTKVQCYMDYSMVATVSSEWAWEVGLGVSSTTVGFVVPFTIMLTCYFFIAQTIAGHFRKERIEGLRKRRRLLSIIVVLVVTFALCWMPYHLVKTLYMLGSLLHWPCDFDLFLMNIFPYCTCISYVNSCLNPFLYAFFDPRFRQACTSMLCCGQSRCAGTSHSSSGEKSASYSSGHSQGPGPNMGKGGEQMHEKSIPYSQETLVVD
Protocol: as §1
Dose-response curves were established and the estimated IC50 values were calculated for each compound.

apelin receptor [9] = target: T1, apelin receptor; assay: Plasmon waveguide resonance (PWR) ligand binding; parameters: expressed in transfected cells; host or cells: HEK cells overexpressing apelin receptor (membrane fragments); details: HEK-apelin receptor cell membrane fragments on polylysine-treated sensor, 22 °C, n = 3
Text: as §2

Chain of Furin (P09958 108-794, species assumed): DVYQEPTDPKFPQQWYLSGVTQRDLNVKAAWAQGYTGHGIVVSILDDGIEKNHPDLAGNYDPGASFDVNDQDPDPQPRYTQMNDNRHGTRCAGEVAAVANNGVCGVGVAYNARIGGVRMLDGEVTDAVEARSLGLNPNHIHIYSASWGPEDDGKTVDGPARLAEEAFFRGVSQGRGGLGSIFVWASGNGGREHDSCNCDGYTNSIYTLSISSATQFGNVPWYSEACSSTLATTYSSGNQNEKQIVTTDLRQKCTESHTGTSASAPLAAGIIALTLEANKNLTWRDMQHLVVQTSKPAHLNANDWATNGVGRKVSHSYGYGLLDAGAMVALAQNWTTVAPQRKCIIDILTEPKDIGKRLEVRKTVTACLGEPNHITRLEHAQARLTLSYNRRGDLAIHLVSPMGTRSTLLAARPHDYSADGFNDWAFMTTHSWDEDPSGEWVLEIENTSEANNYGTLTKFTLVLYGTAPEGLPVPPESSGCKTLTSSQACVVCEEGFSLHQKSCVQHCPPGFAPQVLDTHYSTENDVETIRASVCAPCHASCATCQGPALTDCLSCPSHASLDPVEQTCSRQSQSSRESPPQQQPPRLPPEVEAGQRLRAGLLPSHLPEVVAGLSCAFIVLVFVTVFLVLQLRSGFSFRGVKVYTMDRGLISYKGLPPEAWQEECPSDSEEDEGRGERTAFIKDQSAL

Compound: apelin
- ERK and AKT activation (AKT and ERK): activated ERK and AKT

Compound: APLN: wild-type APLN stably expressed in CT-26 or MC-38 cells by lentiviral vector (QRPRLSHKGPMPF)
- retina vascularization (retinal vasculature): 84.9099 and 86.8403 and 90.0489 and 88.5208 and 85.3624 and 89.8292 and 92.0113 and 89.1254 and 85.4258 and 94.4967 and 90.4185 and 89.0824 and 95.2514 and 99.1254 and 85.2991 and 91.6992 and 83.1786 and 91.7618 and 93.6101
- CAM CT-26 quantification (Fig5P file) (CT-26 cells on CAM; same data as sheet 5N): 168 and 189 and 190
- CAM CT-26 quantification (sheet 5N) (CT-26 cells on CAM; tumor or vascularized area not given): 168 and 189 and 190
- tumor volume (CT-26 and MC-38 tumors; expressing cells, Rag2/γc, day 8, control 60.45, in mm³ (unit assumed)): 180.48
- tumor volume (CT-26 and MC-38 tumors; expressing cells, Rag2/γc, day 11, control 142, in mm³ (unit assumed)): 571
- tumor volume (CT-26 and MC-38 tumors; expressing cells, Rag2/γc, day 13, control 583.25, in mm³ (unit assumed)): 974.2
- tumor volume (CT-26 and MC-38 tumors; expressing cells, Rag2/γc, day 15, control 887.52, in mm³ (unit assumed)): 1295.1
- tumor volume (CT-26 and MC-38 tumors; expressing cells, Rag2/γc, day 18, control 1263.6, in mm³ (unit assumed)): 2221
- tumor volume (CT-26 and MC-38 tumors; expressing cells, Rag2/γc, day 20, control 2040.04, in mm³ (unit assumed)): 2868
- tumor volume (CT-26 and MC-38 tumors; tumor cells stably expressing the construct, Rag2/γc mice (Fig 2C), day 7, control 38.75): 39.12
- CAM vessel density [1]: 120 and 252 and 210 and 201 and 189 and 155 and 145 and 136
- anchorage-independent growth (CT-26 and MC-38 cells): twofold increased

Compound: CSCC[C@H](NC(=O)[C@@H]1CCCN1C(=O)CNC(=O)[C@H](CCCCN)NC(=O)[C@H](Cc1c[nH]cn1)NC(=O)[C@H](CO)NC(=O)[C@H](CC(C)C)NC(=O)[C@H](CCCNC(=N)N)NC(=O)[C@@H]1CCCN1C(=O)[C@H](CCCNC(=N)N)NC(=O)[C@H](CCC(N)=O)NC(=O)[C@H](CO)NC(=O)[C@H](CO)NC(=O)[C@H](Cc1ccccc1)NC(=O)[C@H](CCCCN)NC(=O)[C@H](CO)NC(=O)[C@H](CO)NC(=O)CNC(=O)CNC(=O)[C@H](CCC(N)=O)NC(=O)[C@H](Cc1c[nH]c2ccccc12)NC(=O)[C@@H]1CCCN1C(=O)CNC(=O)[C@@H]1CCCN1C(=O)CNC(=O)[C@H](CC(N)=O)NC(=O)[C@H](CCCNC(=N)N)NC(=O)[C@H](CO)NC(=O)CNC(=O)[C@H](CCCNC(=N)N)NC(=O)[C@@H]1CCCN1C(=O)[C@H](CCC(N)=O)NC(=O)[C@@H](NC(=O)[C@@H](N)CC(C)C)C(C)C)C(=O)N1CCC[C@H]1C(=O)N[C@@H](Cc1ccccc1)C(=O)O [apelin-dm] (H-LVQPRGSRNGPGPWQGGSSKFSSQRPRLSHKGPMPF-OH)
- toxicity in treated tumor-bearing mice (CT-26 tumors): no obvious toxicity in treated mice was observed
- MTD at 336 h (in vivo): > 1000 mg/kg
- half-life in vivo in mice [2]: 0.333 h
- % Protein bound, Mean (in vitro [3]): 54%
- fraction unbound (in vitro [3]; plasma): ~0.5
- % Protein bound, Mean (in vitro [4]): 26%
- Solubility, Mean [5]: 187.3 µM (≈ 734 µg/mL)
- Half-life, Mean (in vitro [6]): 18.68 h
- half-life (in vitro [6]; plasma): > 18 h
- Intrinsic clearance in liver microsomes [7]: < 115.5 µL/min/mg
- cleavage by Furin (Furin): more stable and not cleaved
- IC50 (apelin receptor [8]): 0.45 nM and 0.47 nM
- Kd (apelin receptor [9]): ~0.03 nM
